Data taken from ChEMBL document CHEMBL1201862, “PubChem BioAssay data set” (2004).
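Dose response: 5 concentrations. Exposure: 48 h. Format: 96-well plates. Endpoint: linear interpolation; highest concentration if not reached. Here, GI50 denotes the concentration required for 50% inhibition of growth.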 Active and inactive are the calls of the source. Cut-off read from the data, not from the text of the source: active = GI50 up to about 1.1 µM and inactive = higher.

Legend:
Assay in all cases: DTP human tumour cell line panel, 48 h
MCF7 = test system: MCF7
PC-3 = test system: PC-3
SR = test system: SR
NCI-H522 = test system: NCI-H522
HOP-62 = test system: HOP-62
UACC-257 = test system: UACC-257
SK-MEL-28 = test system: SK-MEL-28
MDA-MB-231 = test system: MDA-MB-231
SF-268 = test system: SF-268
HCC 2998 = test system: HCC 2998
M14 = test system: M14
A549 = test system: A549
IGROV-1 = test system: IGROV-1
Hs-578T = test system: Hs-578T
CAKI-1 = test system: CAKI-1
OVCAR-5 = test system: OVCAR-5
SW-620 = test system: SW-620
SK-MEL-5 = test system: SK-MEL-5
K562 = test system: K562

SMILES | GI50 (MCF7) | GI50 (PC-3) | GI50 (SR) | GI50 (NCI-H522) | GI50 (HOP-62) | GI50 (UACC-257) | GI50 (SK-MEL-28) | GI50 (MDA-MB-231) | GI50 (SF-268) | GI50 (HCC 2998) | GI50 (M14) | GI50 (A549) | GI50 (IGROV-1) | GI50 (Hs-578T) | GI50 (CAKI-1) | GI50 (OVCAR-5) | GI50 (SW-620) | GI50 (SK-MEL-5) | GI50 (K562)
CSC1=N/C(=C\c2ccc(C)cc2)C(=O)N1 | 50.8 µM (inactive) | 94.6 µM (inactive) | > 100 µM (inactive) | 34.1 µM (inactive) | 39.5 µM (inactive) | > 100 µM (inactive) | > 100 µM (inactive) | 92.7 µM (inactive) | 59.6 µM (inactive) | 66.2 µM (inactive) | > 100 µM (inactive) | > 100 µM (inactive) | > 100 µM (inactive) | 32.6 µM (inactive) | > 100 µM (inactive) | > 100 µM (inactive) | > 100 µM (inactive) |  | 
CCOC(=O)CCc1c(C)nc2c(C)c3c([nH]c4ccc(Cl)cc43)c(C)c2c1O | 7 µM (inactive) | 4.19 µM (inactive) | 6.55 µM (inactive) | 6.81 µM (inactive) | 12.3 µM (inactive) | 6 µM (inactive) | 14.1 µM (inactive) | 12.6 µM (inactive) | 14.3 µM (inactive) | 14.1 µM (inactive) | 4.94 µM (inactive) | 4.51 µM (inactive) | 10.2 µM (inactive) | 17.6 µM (inactive) | 18.2 µM (inactive) | 0.843 µM (active) | 22.4 µM (inactive) | 6.12 µM (inactive) | 
c1ccc2c(c1)-c1nc3ccccc3cc1C2N1CCOCC1 (centres undefined) | > 100 µM (inactive) | > 100 µM (inactive) | > 100 µM (inactive) | 43.5 µM (inactive) | > 100 µM (inactive) | > 100 µM (inactive) | > 100 µM (inactive) | > 100 µM (inactive) | 61.2 µM (inactive) |  | > 100 µM (inactive) | > 100 µM (inactive) | 79.4 µM (inactive) | 46.6 µM (inactive) | > 100 µM (inactive) | > 100 µM (inactive) | > 100 µM (inactive) | 82.4 µM (inactive) | > 100 µM (inactive)
Cc1cc(-c2nc3cccc(F)c3s2)ccc1N | 0.0132 µM (active) | > 65.8 µM (inactive) | 2.52 µM (inactive) | > 100 µM (inactive) | > 100 µM (inactive) | > 68.1 µM (inactive) | > 100 µM (inactive) | 98.9 µM (inactive) | > 35 µM (inactive) | > 37.1 µM (inactive) | > 68.2 µM (inactive) | > 52 µM (inactive) | 1.93 µM (inactive) | > 54.2 µM (inactive) | > 59.6 µM (inactive) |  | > 87.9 µM (inactive) | > 100 µM (inactive) | > 56.6 µM (inactive)
Oc1c(Br)cc(/C=C/c2ccnc(/C=C/c3cc(Br)c(O)c(Br)c3)c2)cc1Br | 24.2 µM (inactive) | 16.4 µM (inactive) | 17.8 µM (inactive) |  | 34.4 µM (inactive) | 26.2 µM (inactive) | 39 µM (inactive) | 21.9 µM (inactive) | 40.3 µM (inactive) | 25.8 µM (inactive) | 25.1 µM (inactive) | 23.6 µM (inactive) | 32.4 µM (inactive) | 54.2 µM (inactive) | 35.5 µM (inactive) | 25.5 µM (inactive) | 35.6 µM (inactive) | 19.1 µM (inactive) | 24.2 µM (inactive)
COC(=O)OC[C@H]1O[C@@H](n2cc(C)c(=O)[nH]c2=O)CC1OC(=O)OC (some centres undefined) | > 100 µM (inactive) | > 100 µM (inactive) | 61.7 µM (inactive) | > 100 µM (inactive) | > 100 µM (inactive) |  | > 100 µM (inactive) | > 100 µM (inactive) | > 100 µM (inactive) | > 100 µM (inactive) | > 100 µM (inactive) | > 100 µM (inactive) | > 100 µM (inactive) | > 100 µM (inactive) |  | > 100 µM (inactive) | > 100 µM (inactive) | > 100 µM (inactive) | > 100 µM (inactive)
Cc1cnc(-c2c[nH]c3ccccc23)nc1-c1c[nH]c2ccccc12 | 3.05 µM (inactive) | 3.49 µM (inactive) | 11.3 µM (inactive) |  | 11.7 µM (inactive) | 6.82 µM (inactive) |  | 2.31 µM (inactive) | 15.9 µM (inactive) | 4.67 µM (inactive) | 4.32 µM (inactive) | 3.64 µM (inactive) | 1.14 µM (inactive) | 17.9 µM (inactive) | 5.4 µM (inactive) | 5.5 µM (inactive) | 11.5 µM (inactive) | 6.97 µM (inactive) | 3.3 µM (inactive)
COc1ccc(-c2c(N)n(-c3nc4ccccc4s3)c(=O)c3cc([N+](=O)[O-])ccc23)cc1 | 44.8 µM (inactive) | 30.8 µM (inactive) | 8.39 µM (inactive) | 10.7 µM (inactive) | 14 µM (inactive) | 67.8 µM (inactive) | > 100 µM (inactive) | 16.9 µM (inactive) | 17.2 µM (inactive) |  | 17.8 µM (inactive) | 11.2 µM (inactive) |  | 13.7 µM (inactive) | 21.3 µM (inactive) | 22.2 µM (inactive) | 19.7 µM (inactive) |  | 23.2 µM (inactive)
